“Also recorded” adds a separate entry of the source. Counter-ions that a name gives are not always drawn.
Columns and labels:
[1] = target: extracellular-signal-regulated kinase 8 (ERK8) (Homo sapiens, UniProt Q8TD08); details: cited from earlier work
DYRK1a = DYRK1a (Homo sapiens, UniProt Q13627); details: cited from earlier work
PIM1 = PIM1 (Homo sapiens, UniProt P11309); details: cited from earlier work
HIPK2 = HIPK2 (Homo sapiens, UniProt Q9H2X6); details: cited from earlier work
casein kinase 2 (CK2) = casein kinase 2 (CK2) (Homo sapiens, UniProt P68400); details: cited from earlier work
[2] = tested on: human recombinant MEK1, MKK4, IKKα, PKCα, Src, Syc and PDGFα; details: at concentrations less than 30 μM; cited from earlier work
Mv1Lu cells = details: read-out: IC50, TGFβ-induced AP-1 activation; cited from earlier work
JNK [3] = details: cited from earlier work
JNK [4] = target: T1, JNK; details: cited from earlier work
T1 construct: IC50; Ki

c-Jun phosphorylation = details: cited from earlier work
ATM kinase = ATM kinase (Homo sapiens, UniProt Q13315); details: cited from earlier work
ATR [5] = target: ATR (Homo sapiens, UniProt Q13535); details: cited from earlier work
human CD34+ HSPCs [6] = assay: HDR gene editing efficiency in HSPCs (ddPCR, GFP flow cytometry); assay type: cell-based
JNK1, 2 and 3 = details: cited from earlier work
[7] = cited from earlier work
ATR [8] = target: T2, ATR (Mus musculus, UniProt Q9JKK8); details: 3T3TopBP1-ER cells; cited from earlier work
T2 construct: endogenous in cells; host or cells: 3T3TopBP1-ER cells

JNK and JIP = details: read-out: IC50, protein-protein interaction between JNK and JIP; cited from earlier work
BRD4 = BRD4 (Homo sapiens, UniProt O60885); details: cited from earlier work
edited human CD34+ HSPCs = assay: CD34+ HSPC xenotransplantation in NSG mice; assay type: in vivo; details: inhibitor at time of ex vivo GE (GSE56: limiting cell doses)
[9] = tested on: BM-derived human CD34+ cells; assay: Senescence markers (p16, SA-β-Gal) in BM-derived cells of the human graft; assay type: in vivo, NSG mice; details: NSG mice, endpoint 15-18 weeks; inhibitor at time of ex vivo GE
[10] = tested on: BM-derived human CD34+ cells; assay: CFU-C assay of CD34+ cells retrieved from bone marrow of primary recipients; assay type: cell-based; details: 15-18 weeks, inhibitor at time of ex vivo GE vs standard protocol
IL1A, IL8, IL6, CCL2 = assay: Inflammatory cytokine expression in edited HSPCs (qPCR); assay type: cell-based, human; details: CB HSPCs, HS/AAV6; inhibitor at time of GE vs standard protocol
IL8, CXCL10, p21, p16 = assay: Gene expression in BM-derived HSPCs (qPCR); assay type: cell-based, human; details: 18 weeks post transplantation, HS/AAV6 ± GSE56
Procedure: For gene expression analyses, total RNA was extracted using either miRNeasy Micro Kit (QIAGEN) according to the manufacturer's instructions and DNase treatment was performed using RNase-free DNase Set (QIAGEN). cDNA was synthetized with iScript cDNA Synthesis Kit (Bio-Rad). cDNA was then pre-amplified using TaqMan PreAmp Master Mix (ThermoFisher) and used for q-PCR in a Viia7 Real-time PCR thermal cycler using both Fast SYBR Green Master Mix (Thermofisher), after standard curve method optimization to reach the 100% primer efficiency for each couple of primers listed in 1. The relative expression of each target gene was first normalized to GUSB housekeeping genes expression and then represented as 2^-DCt for each sample or as fold changes (2^-DDCt) relative to the indicated control conditions.

human CD34+ HSPCs [11] = assay: Colony-forming unit cell (CFU-C) assay; assay type: cell-based; details: CB HSPCs, HS/AAV6; inhibitor at time of GE vs standard protocol; 24 h and 96 h post GE

Chain of casein kinase 2 (CK2) (P68400 whole entry): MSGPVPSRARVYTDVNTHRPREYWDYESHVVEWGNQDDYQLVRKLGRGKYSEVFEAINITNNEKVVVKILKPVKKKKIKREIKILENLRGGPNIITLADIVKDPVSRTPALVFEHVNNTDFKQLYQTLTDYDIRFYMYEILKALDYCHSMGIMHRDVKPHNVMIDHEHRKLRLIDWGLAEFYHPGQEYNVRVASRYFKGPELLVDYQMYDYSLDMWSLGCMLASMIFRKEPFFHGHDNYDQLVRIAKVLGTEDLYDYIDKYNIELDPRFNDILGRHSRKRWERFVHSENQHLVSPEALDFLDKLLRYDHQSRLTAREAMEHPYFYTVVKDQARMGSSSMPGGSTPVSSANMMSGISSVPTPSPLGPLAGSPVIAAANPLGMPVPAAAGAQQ
Chain of extracellular-signal-regulated kinase 8 (ERK8) (Q8TD08 whole entry, species assumed): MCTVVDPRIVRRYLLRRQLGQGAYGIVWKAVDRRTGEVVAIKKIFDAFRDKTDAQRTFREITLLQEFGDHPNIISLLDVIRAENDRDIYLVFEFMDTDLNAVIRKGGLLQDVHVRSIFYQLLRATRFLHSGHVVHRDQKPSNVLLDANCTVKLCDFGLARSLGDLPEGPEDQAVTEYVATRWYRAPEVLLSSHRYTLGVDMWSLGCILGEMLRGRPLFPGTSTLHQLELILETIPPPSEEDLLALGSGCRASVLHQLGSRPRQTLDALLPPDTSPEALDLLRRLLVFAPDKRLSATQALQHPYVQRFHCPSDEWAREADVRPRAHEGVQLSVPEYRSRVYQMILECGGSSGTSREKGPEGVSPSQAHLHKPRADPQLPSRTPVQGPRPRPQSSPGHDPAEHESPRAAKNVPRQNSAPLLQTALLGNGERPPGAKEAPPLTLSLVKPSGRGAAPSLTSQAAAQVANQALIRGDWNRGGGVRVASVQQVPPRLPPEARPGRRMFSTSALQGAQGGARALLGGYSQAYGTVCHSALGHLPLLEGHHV
Chain of PIM1 (P11309 whole entry, species assumed): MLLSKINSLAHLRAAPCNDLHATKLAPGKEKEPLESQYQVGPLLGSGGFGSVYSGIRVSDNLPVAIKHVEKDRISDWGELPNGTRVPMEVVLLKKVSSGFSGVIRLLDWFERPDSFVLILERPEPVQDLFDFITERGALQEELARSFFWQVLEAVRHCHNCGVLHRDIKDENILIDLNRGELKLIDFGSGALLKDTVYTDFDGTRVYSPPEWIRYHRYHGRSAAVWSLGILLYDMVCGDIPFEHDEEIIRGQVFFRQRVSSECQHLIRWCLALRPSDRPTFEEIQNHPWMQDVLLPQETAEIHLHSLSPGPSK
Chain of ATM kinase (Q13315 whole entry): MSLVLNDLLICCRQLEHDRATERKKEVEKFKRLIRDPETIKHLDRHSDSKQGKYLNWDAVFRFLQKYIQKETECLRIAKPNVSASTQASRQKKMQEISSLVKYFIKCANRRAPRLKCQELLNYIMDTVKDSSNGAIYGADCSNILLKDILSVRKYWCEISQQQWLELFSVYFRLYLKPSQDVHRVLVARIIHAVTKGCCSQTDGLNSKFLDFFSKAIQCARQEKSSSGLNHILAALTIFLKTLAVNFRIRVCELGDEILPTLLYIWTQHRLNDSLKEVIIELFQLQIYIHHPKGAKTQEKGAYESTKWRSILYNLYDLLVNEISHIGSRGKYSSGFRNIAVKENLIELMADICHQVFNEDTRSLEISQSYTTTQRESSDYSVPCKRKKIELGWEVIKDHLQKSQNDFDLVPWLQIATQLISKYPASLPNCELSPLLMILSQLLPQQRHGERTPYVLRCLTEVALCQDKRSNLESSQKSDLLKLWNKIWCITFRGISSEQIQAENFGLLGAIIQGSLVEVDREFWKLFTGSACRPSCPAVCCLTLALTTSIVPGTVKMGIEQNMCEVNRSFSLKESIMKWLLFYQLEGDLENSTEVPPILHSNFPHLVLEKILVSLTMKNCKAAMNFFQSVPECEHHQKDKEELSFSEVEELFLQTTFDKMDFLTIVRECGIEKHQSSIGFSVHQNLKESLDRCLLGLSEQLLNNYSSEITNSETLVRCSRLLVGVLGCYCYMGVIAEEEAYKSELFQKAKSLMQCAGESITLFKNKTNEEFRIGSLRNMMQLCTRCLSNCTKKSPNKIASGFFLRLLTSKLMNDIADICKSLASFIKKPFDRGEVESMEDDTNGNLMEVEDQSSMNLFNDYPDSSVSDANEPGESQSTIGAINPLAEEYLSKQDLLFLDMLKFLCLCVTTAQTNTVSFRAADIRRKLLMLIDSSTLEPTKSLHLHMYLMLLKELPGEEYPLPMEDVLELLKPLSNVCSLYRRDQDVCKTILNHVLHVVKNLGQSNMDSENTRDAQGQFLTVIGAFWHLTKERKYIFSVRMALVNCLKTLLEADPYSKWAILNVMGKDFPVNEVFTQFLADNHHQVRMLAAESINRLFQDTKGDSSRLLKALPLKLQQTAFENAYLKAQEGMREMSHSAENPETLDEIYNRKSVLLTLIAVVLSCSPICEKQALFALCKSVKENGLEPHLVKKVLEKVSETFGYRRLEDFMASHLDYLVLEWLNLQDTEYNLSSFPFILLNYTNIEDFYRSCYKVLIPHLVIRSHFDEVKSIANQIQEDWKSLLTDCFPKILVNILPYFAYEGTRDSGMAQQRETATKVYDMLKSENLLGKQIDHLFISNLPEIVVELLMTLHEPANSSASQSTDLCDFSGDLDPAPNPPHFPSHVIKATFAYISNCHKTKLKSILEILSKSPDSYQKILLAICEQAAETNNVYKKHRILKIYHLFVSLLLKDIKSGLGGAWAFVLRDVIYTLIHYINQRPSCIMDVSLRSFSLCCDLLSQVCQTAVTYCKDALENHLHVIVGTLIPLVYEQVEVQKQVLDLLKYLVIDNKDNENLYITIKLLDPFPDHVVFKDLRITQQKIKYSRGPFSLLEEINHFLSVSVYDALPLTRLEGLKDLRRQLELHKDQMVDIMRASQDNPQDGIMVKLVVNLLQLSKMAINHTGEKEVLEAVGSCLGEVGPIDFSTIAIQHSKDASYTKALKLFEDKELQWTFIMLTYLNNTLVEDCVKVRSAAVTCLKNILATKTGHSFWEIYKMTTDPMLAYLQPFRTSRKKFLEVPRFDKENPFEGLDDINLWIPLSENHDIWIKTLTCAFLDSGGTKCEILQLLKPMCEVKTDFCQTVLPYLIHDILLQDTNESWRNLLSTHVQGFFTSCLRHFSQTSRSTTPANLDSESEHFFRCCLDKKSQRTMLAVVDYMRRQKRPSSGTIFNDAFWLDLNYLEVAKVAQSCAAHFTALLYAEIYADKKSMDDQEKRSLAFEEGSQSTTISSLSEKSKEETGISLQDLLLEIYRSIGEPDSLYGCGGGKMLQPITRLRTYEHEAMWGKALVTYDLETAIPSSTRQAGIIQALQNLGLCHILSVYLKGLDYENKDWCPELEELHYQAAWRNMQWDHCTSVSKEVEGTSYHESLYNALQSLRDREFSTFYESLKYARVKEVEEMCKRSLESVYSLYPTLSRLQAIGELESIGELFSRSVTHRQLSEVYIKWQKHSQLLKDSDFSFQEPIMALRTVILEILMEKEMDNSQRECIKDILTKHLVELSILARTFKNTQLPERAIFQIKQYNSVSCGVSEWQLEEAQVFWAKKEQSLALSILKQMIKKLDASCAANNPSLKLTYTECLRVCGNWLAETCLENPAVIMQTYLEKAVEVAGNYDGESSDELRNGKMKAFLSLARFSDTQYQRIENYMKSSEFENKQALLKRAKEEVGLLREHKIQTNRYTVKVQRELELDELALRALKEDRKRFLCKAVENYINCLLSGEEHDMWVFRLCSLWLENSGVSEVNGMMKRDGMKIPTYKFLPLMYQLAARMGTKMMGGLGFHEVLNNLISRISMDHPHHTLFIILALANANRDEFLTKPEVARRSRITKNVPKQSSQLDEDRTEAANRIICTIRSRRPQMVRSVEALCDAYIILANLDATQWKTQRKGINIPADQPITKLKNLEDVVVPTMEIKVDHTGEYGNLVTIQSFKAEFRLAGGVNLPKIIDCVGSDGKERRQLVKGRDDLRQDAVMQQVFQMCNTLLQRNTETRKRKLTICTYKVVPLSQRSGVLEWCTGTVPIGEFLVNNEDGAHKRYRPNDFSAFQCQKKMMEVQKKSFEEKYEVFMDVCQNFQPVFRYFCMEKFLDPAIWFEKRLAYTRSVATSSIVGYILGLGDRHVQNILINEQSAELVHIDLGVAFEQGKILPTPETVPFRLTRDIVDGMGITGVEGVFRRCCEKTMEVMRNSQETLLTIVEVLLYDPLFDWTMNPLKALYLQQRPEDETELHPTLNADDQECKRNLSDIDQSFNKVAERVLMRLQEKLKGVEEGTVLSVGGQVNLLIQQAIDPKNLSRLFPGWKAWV

## CN(C)c1nc2c(Br)c(Br)c(Br)c(Br)c2n1CC(=O)O [TMCB, 2-(4,5,6,7-Tetrabromo-2-(dimethylamino)-1H-benzo[d]imidazol-1-yl)acetic acid]
[1]
  IC50: 500 nM
DYRK1a
  Ki: 11900 nM
PIM1
  Ki: 8650 nM
HIPK2
  Ki: 15200 nM
Casein kinase 2 (CK2)
  IC50: 500 nM
  Ki: 250 nM

## Nc1n[nH]c2nnc(-c3c(-c4ccccc4)nn4ccccc34)cc12 [FR180204, 5-(2-Phenyl-pyrazolo[1,5-a]pyridin-3-yl)-1H-pyrazolo[3,4-c]pyridazin-3-ylamine]
[2]
  activity against MEK1, MKK4, IKKα, PKCα, Src, Syc and PDGFα: no activity
Mv1Lu cells
  IC50: 3100 nM

## Cl.Cl.c1cc(OCCN2CCCCC2)cc(-c2n[nH]c3ccc(-c4ncn[nH]4)cc23)c1 [CC 401 dihydrochloride, 3-[3-[2-(1-Piperidinyl)ethoxy]phenyl]-5-(1H-1,2,4-triazol-5-yl)-1H-indazole dihydrochloride]
JNK [3]
  selectivity for JNK over p38, ERK, IKK2, protein kinase C, Lck and ZAP70: > 40 fold
JNK [4]
  Ki: 25 to 50 nM

## CCOc1nc(NC(=O)Cc2cc(OC)ccc2OC)cc(N)c1C#N [TCS JNK 6o, N-(4-Amino-5-cyano-6-ethoxy-2-pyridinyl)-2,5-dimethoxybenzeneacetamide]
c-Jun phosphorylation
  EC50: 920 nM

## O=C(NC(NC(=S)Nc1ccc(F)c([N+](=O)[O-])c1)C(Cl)(Cl)Cl)C(c1ccccc1)c1ccccc1 (centres unmarked) [CGK 733]
ATM kinase
  IC50: ~200 nM
ATR [5]
  IC50: ~200 nM

## O=C1c2ccccc2-c2n[nH]c3cccc1c23 [SP600125, Anthra[1-9-cd]pyrazol-6(2H)-one]
Human CD34+ HSPCs [6]; CB HSPCs, Erk (4 μM) or Jnk (2 μM) inhibitor day 1 and 2 vs DMSO, 96 h post-editing
  GFP levels in HSPC subpopulations (GE efficiency): increase in GFP levels
Human CD34+ HSPCs [6]; Jnk inhibitor 2 μM day 1 and 2
  Percentage of more primitive edited cells: higher percentage of more primitive edited cells
JNK1, 2 and 3
  IC50: 40 to 90 nM

## O=c1cc(-c2cccc3c2Sc2ccccc2S3)oc(N2CCOCC2)c1 [KU-55933]
[7]
  solubility: soluble in DMSO and ethanol

## C[S+]([O-])c1ccc(-c2nc(-c3ccncc3)c(-c3ccc(F)cc3)[nH]2)cc1 (centres unmarked) [SB 203580 hydrochloride]
[7]
  solubility: water-soluble

## Cn1c(=O)n(-c2ccc(C(C)(C)C#N)cc2)c2c3cc(-c4cnc5ccccc5c4)ccc3ncc21 [BEZ235]
ATR [8]
  IC50: ~21 nM

## Nc1nnc(Sc2ncc([N+](=O)[O-])s2)s1 [SU 3327, 5-[(5-Nitro-2-thiazolyl)thio]-1,3,4thiadiazol-2-amine]
JNK [4]
  IC50: 700 nM
JNK and JIP
  IC50: 239 nM

## CCOc1cc(N2CCC(O)CC2)ccc1Nc1ncc2c(n1)N(C)c1ccccc1C(=O)N2C [XMD 8-92, 2-[[2-Ethoxy-4-(4-hydroxy-1-piperidinyl)phenyl]amino]-5,11-dihydro-5,11-dimethyl-6H-pyrimido[4,5-b][1,4]benzodiazepin-6-one]
BRD4
  Kd: 190 nM

B1: GSE56: mRNA encoding for a dominant negative p53 truncated form (GSE56), co-electroporated; SEQ ID No. 8 and 9 (nucleic acid)
sense: ATGGATGGATGGTGTCCTGGGAGAGACCGTCGGACAGAGGAAGAAAATTTCCGCAAAAAAGAAGAGCATTGCCCGGAGCTGCCCCCAGGGAGTGCAAAGAGAGCACTGCCCACCAGCACAAGCTCCTCTCCCCAGCAAAAGAAAAAACCACTCGATGGAGAATATTTCACCCTTAAGATCCGTGGGCGTGAGCGCTTCGAGATGTTCCGAGAGCTGAATGAGGCCTTGGAATTAAAGGATGCCCGTGCTGCCGAGGAGTCAGGAGACAGCAGGGCTCACTCCAGCTACCCGAAGATAGTTAGTTAG
Edited human CD34+ HSPCs
  Human CD45+ engraftment in peripheral blood vs standard protocol: fourfold higher engraftment than the standard protocol
[9]
  Percentage of senescent cells (p16, SA-β-Gal) in BM-derived CD34+ / HDR-edited cells of the human graft: prevented the accumulation of the senescence marker SA-β-gal; also recorded: this reduction was observed also upon p53 inhibition
Human CD34+ HSPCs [6]; CB HSPCs, AAVS1 editing (HS/AAV6), inhibitor at time of GE (Anakinra 50 ng/μl, SC514 25 μM, GSE56 mRNA, ATMi) vs standard protocol
  Percentage of HDR-edited alleles (ddPCR): tended to increase the percentage of HDR editing
[10]
  Number of colonies formed by BM-derived CD34+ cells: improvement of HSPC clonogenic potential upon p53 inhibition; also recorded: became higher upon p53 inhibition
IL1A, IL8, IL6, CCL2
  Relative expression of inflammatory cytokine genes (IL1A, IL8, IL6, CCL2): downregulation of the cytokines
IL8, CXCL10, p21, p16
  mRNA levels of p21, p16 and IL8 in BM-derived HSPCs: mitigated by the administration of GSE56
Human CD34+ HSPCs [11]
  Number of colonies (HSPC clonogenic potential): similarly increased
